Source: US20260263651A1, “WOUND DRESSING” (UNIVERSITY OF SUNDERLAND, priority 2023, published 2026)

What was measured:
Staphylococcus aureus = test: Microbiological evaluation of standardised bacterial suspensions, modified wound dressing with absorbed substrate on agar; assay type: cell-based; design: key to Observable colour change: − indicates no colour change; +− indicates relatively discernible blue colour change; + indicates a moderately strong blue colour change; ++ indicates a strong blue colour change; conditions: for colour change: SA
Method: (§1) ACTIVHEAL® simply A (10×20 cm) non-adhesive foam samples were provided by Advanced Medical Solutions Ltd. The wound dressings were cut into ~5-10×5-10 mm squares, using an ethanol washed pair of scissors. A maximum of 0.20 g of the material was added into 10 mL DI water, and the pH was adjusted to ~3 by the addition of 0.1 M aq. HCl solution. The solution was stirred for 10 mins at room temperature, followed by the addition of 0.33 g EDC •HCl (1.7 mmol) and the pH was maintained at ~3 by the addition of 0.1 M aq. HCl solution. The solution was stirred at room temperature for 10 mins followed by the addition of 0.88 g compound 8 which was dissolved in DMSO or DMF. The mixture was stirred at room temperature for 48 h. The wound dressings were filtered and were washed with ethanol. To ensure the full removal of any non-coupled amide (8), the foam samples were resuspended in ethanol, stirred for 10 mins and filtered, and this process was repeated until the amide (8) was not detectable from the filtrate (this could be maintained by TLC or HPLC evaluation). The samples were dried in a vacuum oven for 3-4 h.
(§2) The aqueous solution of 3a or 3b was prepared by the following: the desired amount of the enzymatic substrate (3.0 mg for 300 mg/L, 6.0 mg for 600 mg/L, 9.0 mg for 900 mg/L, 15.0 mg for 1500 mg/L, and 30.0 mg for 3000 mg/L) was weighed out on a 4 decimal place balance within ±0.3 mg error limit into a 10 mL volumetric flask and was adjusted to 10.0 mL with DI water. The solutions were absorbed into the foam samples and dried in a vacuum oven at 40° C. overnight.
(§3) Bacterial strains were routinely cultured from working stocks in Tryptic Soy Broth (TSB) and incubated at 37° C. overnight with shaking at 150 RPM. Overnight cultures were centrifuged at 3000×g for 5 minutes, the supernatant discarded, and the pellet resuspended in 10 mL phosphate buffered saline (PBS). Bacterial inoculums were standardised by optical density at 600 nm on an Amersham Biosciences Ultrospec 10 spectrophotometer (Amersham Biosciences, Amersham, UK) to contain between 1 and 3×10^8 CFU/mL.
(§4) However, rapid evaluation of lower bacteria concentrations is essential for the desired clinical application. […] The solutions were absorbed into the wound dressing samples, which were dried overnight under vacuum at 40° C.
(§5) Two Gram negative strains (Escherichia coli—EC and Pseudomonas aeruginosa—PSA) and a Gram-positive bacterium (Staphylococcus aureus—SA) were evaluated. The bacteria were incubated overnight, centrifuged at 3000×g for 5 mins, the supernatant was discarded, and the residue pellets were resuspended in 10 mL PBS. The inoculums were standardised by measuring the optical density at 600 nm to assure a 1-3×10^8 CFU/mL. The standardised solutions were further diluted to prepare 1-3×10^6 and 1-3×10^4 CFU/mL suspension. 1×10^6 CFU would be an ideal breakpoint for a positive result, as this concentration coincides well with a level of colonisation that would likely go on to produce an infection.
(§6) 100 μL bacterial suspensions were smeared over agar plates. Wound dressing samples were added to the top of the agar and were rolled over a few times (to ensure a full coverage and to ease the visibility of the colour change). The plates were incubated at 37° C., and the results were recorded after 24 h, after 48 h, after 72 h. The results are shown in Table 3-5; − indicates no colour change, +− indicates relatively discernible blue colour change, + indicates a moderately strong blue colour change and ++ indicates a strong blue colour change.

Pseudomonas aeruginosa = test: as above; assay type: cell-based; design: key to Observable colour change: − indicates no colour change; +− indicates relatively discernible blue colour change; + indicates a moderately strong blue colour change; ++ indicates a strong blue colour change
Method: as §1, §2, §3, §4, §5, §6

For `CCN(CC)c1ccc(NC(=O)[C@@H](N)CC(C)C)cc1.Cl` [3b, (2S)-2-amino-N-[4-(diethylamino)phenyl]-4-methyl-pentanamide hydrochloride], which Observable colour change (Staphylococcus aureus; SA 10^4, substrate 300 mg/L, 24 h at 37° C.) is on record?
Its Observable colour change is “−”.

And the Observable colour change (Staphylococcus aureus; SA 10^4, substrate 300 mg/L, 48 h at 37° C.)?
The Observable colour change was “−”.

And the Observable colour change (Staphylococcus aureus; SA 10^4, substrate 300 mg/L, 72 h at 37° C.)?
Its Observable colour change is “−”.

What about the Observable colour change (Staphylococcus aureus; SA 10^4, substrate 900 mg/L, 24 h at 37° C.) of the same compound?
The Observable colour change was “−”.

What about the Observable colour change (Staphylococcus aureus; SA 10^4, substrate 900 mg/L, 48 h at 37° C.) of the same compound?
Its Observable colour change is “−”.

And the Observable colour change (Staphylococcus aureus; SA 10^4, substrate 900 mg/L, 72 h at 37° C.)?
The Observable colour change was “−”.

What about the Observable colour change (Staphylococcus aureus; SA 10^4, substrate 1500 mg/L, 24 h at 37° C.) of the same compound?
The Observable colour change was “−”.

And the Observable colour change (Staphylococcus aureus; SA 10^4, substrate 1500 mg/L, 48 h at 37° C.)?
Its Observable colour change is “−”.

What about the Observable colour change (Staphylococcus aureus; SA 10^4, substrate 1500 mg/L, 72 h at 37° C.) of the same compound?
The Observable colour change was “−”.

And the Observable colour change (Staphylococcus aureus; SA 10^6, substrate 300 mg/L, 24 h at 37° C.)?
The Observable colour change was “−”.

And the Observable colour change (Staphylococcus aureus; SA 10^6, substrate 300 mg/L, 48 h at 37° C.)?
The Observable colour change was “−”.

And the Observable colour change (Staphylococcus aureus; SA 10^6, substrate 300 mg/L, 72 h at 37° C.)?
Its Observable colour change is “−”.

And the Observable colour change (Staphylococcus aureus; SA 10^6, substrate 900 mg/L, 24 h at 37° C.)?
Its Observable colour change is “−”.

What about the Observable colour change (Staphylococcus aureus; SA 10^6, substrate 900 mg/L, 48 h at 37° C.) of the same compound?
Its Observable colour change is “−”.

And the Observable colour change (Staphylococcus aureus; SA 10^6, substrate 900 mg/L, 72 h at 37° C.)?
The Observable colour change was “−”.

What about the Observable colour change (Staphylococcus aureus; SA 10^6, substrate 1500 mg/L, 24 h at 37° C.) of the same compound?
The Observable colour change was “−”.

What about the Observable colour change (Staphylococcus aureus; SA 10^6, substrate 1500 mg/L, 48 h at 37° C.) of the same compound?
The Observable colour change was “−”.

What about the Observable colour change (Staphylococcus aureus; SA 10^6, substrate 1500 mg/L, 72 h at 37° C.) of the same compound?
Its Observable colour change is “+−”.

What about the Observable colour change (Staphylococcus aureus; SA 10^8, substrate 300 mg/L, 24 h at 37° C.) of the same compound?
The Observable colour change was “−”.

What about the Observable colour change (Staphylococcus aureus; SA 10^8, substrate 300 mg/L, 48 h at 37° C.) of the same compound?
Its Observable colour change is “−”.

What about the Observable colour change (Staphylococcus aureus; SA 10^8, substrate 300 mg/L, 72 h at 37° C.) of the same compound?
Its Observable colour change is “−”.

And the Observable colour change (Staphylococcus aureus; SA 10^8, substrate 900 mg/L, 24 h at 37° C.)?
The Observable colour change was “−”.

And the Observable colour change (Staphylococcus aureus; SA 10^8, substrate 900 mg/L, 48 h at 37° C.)?
Its Observable colour change is “−”.

What about the Observable colour change (Staphylococcus aureus; SA 10^8, substrate 900 mg/L, 72 h at 37° C.) of the same compound?
The Observable colour change was “−”.

And the Observable colour change (Staphylococcus aureus; SA 10^8, substrate 1500 mg/L, 24 h at 37° C.)?
The Observable colour change was “−”.

And the Observable colour change (Staphylococcus aureus; SA 10^8, substrate 1500 mg/L, 48 h at 37° C.)?
The Observable colour change was “+−”.

What about the Observable colour change (Staphylococcus aureus; SA 10^8, substrate 1500 mg/L, 72 h at 37° C.) of the same compound?
Its Observable colour change is “+−”.

What about the colour change (Staphylococcus aureus; 48 h paragraph, substrate 1500 mg/L) of the same compound?
Its colour change is “weak, but discernible colour change”.

And the colour change (Staphylococcus aureus; after 72 h, substrate 1500 mg/L)?
The colour change was “weak, hardly visible colour change”.

And the Observable colour change (Pseudomonas aeruginosa; PSA 10^4, substrate 300 mg/L, 24 h at 37° C.)?
Its Observable colour change is “−”.

And the Observable colour change (Pseudomonas aeruginosa; PSA 10^4, substrate 300 mg/L, 48 h at 37° C.)?
Its Observable colour change is “−”.

What about the Observable colour change (Pseudomonas aeruginosa; PSA 10^4, substrate 300 mg/L, 72 h at 37° C.) of the same compound?
Its Observable colour change is “+”.

What about the Observable colour change (Pseudomonas aeruginosa; PSA 10^4, substrate 900 mg/L, 24 h at 37° C.) of the same compound?
The Observable colour change was “−”.

And the Observable colour change (Pseudomonas aeruginosa; PSA 10^4, substrate 900 mg/L, 48 h at 37° C.)?
The Observable colour change was “−”.

And the Observable colour change (Pseudomonas aeruginosa; PSA 10^4, substrate 900 mg/L, 72 h at 37° C.)?
The Observable colour change was “++”.

What about the Observable colour change (Pseudomonas aeruginosa; PSA 10^4, substrate 1500 mg/L, 24 h at 37° C.) of the same compound?
The Observable colour change was “−”.

And the Observable colour change (Pseudomonas aeruginosa; PSA 10^4, substrate 1500 mg/L, 48 h at 37° C.)?
The Observable colour change was “−”.

And the Observable colour change (Pseudomonas aeruginosa; PSA 10^4, substrate 1500 mg/L, 72 h at 37° C.)?
Its Observable colour change is “++”.

And the Observable colour change (Pseudomonas aeruginosa; PSA 10^6, substrate 300 mg/L, 24 h at 37° C.)?
Its Observable colour change is “−”.

What about the Observable colour change (Pseudomonas aeruginosa; PSA 10^6, substrate 300 mg/L, 48 h at 37° C.) of the same compound?
The Observable colour change was “−”.

What about the Observable colour change (Pseudomonas aeruginosa; PSA 10^6, substrate 300 mg/L, 72 h at 37° C.) of the same compound?
Its Observable colour change is “+”.

What about the Observable colour change (Pseudomonas aeruginosa; PSA 10^6, substrate 900 mg/L, 24 h at 37° C.) of the same compound?
The Observable colour change was “−”.

And the Observable colour change (Pseudomonas aeruginosa; PSA 10^6, substrate 900 mg/L, 48 h at 37° C.)?
Its Observable colour change is “+−”.

And the Observable colour change (Pseudomonas aeruginosa; PSA 10^6, substrate 900 mg/L, 72 h at 37° C.)?
Its Observable colour change is “++”.

And the Observable colour change (Pseudomonas aeruginosa; PSA 10^6, substrate 1500 mg/L, 24 h at 37° C.)?
The Observable colour change was “−”.

And the Observable colour change (Pseudomonas aeruginosa; PSA 10^6, substrate 1500 mg/L, 48 h at 37° C.)?
Its Observable colour change is “−”.

And the Observable colour change (Pseudomonas aeruginosa; PSA 10^6, substrate 1500 mg/L, 72 h at 37° C.)?
Its Observable colour change is “+”.

And the colour change (Pseudomonas aeruginosa; PSA 10^8, 10^6 or 10^4 CFU, after 72 h, every tested substrate concentration)?
Its colour change is “moderate or strong blue colour changes”.

What about the Observable colour change (Pseudomonas aeruginosa; PSA 10^8, substrate 300 mg/L, 24 h at 37° C.) of the same compound?
Its Observable colour change is “−”.

What about the Observable colour change (Pseudomonas aeruginosa; PSA 10^8, substrate 300 mg/L, 48 h at 37° C.) of the same compound?
The Observable colour change was “+”.

And the Observable colour change (Pseudomonas aeruginosa; PSA 10^8, substrate 300 mg/L, 72 h at 37° C.)?
The Observable colour change was “+”.

What about the Observable colour change (Pseudomonas aeruginosa; PSA 10^8, substrate 900 mg/L, 24 h at 37° C.) of the same compound?
The Observable colour change was “−”.

What about the Observable colour change (Pseudomonas aeruginosa; PSA 10^8, substrate 900 mg/L, 48 h at 37° C.) of the same compound?
Its Observable colour change is “++”.

What about the Observable colour change (Pseudomonas aeruginosa; PSA 10^8, substrate 900 mg/L, 72 h at 37° C.) of the same compound?
The Observable colour change was “++”.

What about the Observable colour change (Pseudomonas aeruginosa; PSA 10^8, substrate 1500 mg/L, 24 h at 37° C.) of the same compound?
Its Observable colour change is “−”.

What about the Observable colour change (Pseudomonas aeruginosa; PSA 10^8, substrate 1500 mg/L, 48 h at 37° C.) of the same compound?
Its Observable colour change is “++”.

And the Observable colour change (Pseudomonas aeruginosa; PSA 10^8, substrate 1500 mg/L, 72 h at 37° C.)?
The Observable colour change was “++”.

And the colour change (Pseudomonas aeruginosa; PSA 10^8 CFU, 10^6 CFU, and 104 CFU, substrate 900 mg/L, printed in the 48 h paragraph)?
The colour change was “strong blue colour changes”.

And the colour change (Pseudomonas aeruginosa; PSA 10^8 CFU, after 48 h incubation, substrate 900 or 1500 mg/L)?
Its colour change is “strong blue colour changes”.
